From patent US20240317752A1, “6-SUBSTITUTED-9H-PURINE DERIVATIVES AND RELATED USES” (Black Diamond Therapeutics, Inc., priority 2021, published 2024) come the findings set out here.

What is called GI50 is the concentration giving 50% growth inhibition. Read a low GI50 as more potent growth inhibition.

For the experiment, the target named is T1, BaF3 BRAF-KIAA1549 fusion cells (Homo sapiens, UniProt P15056).
T1 construct: The BRAF-KIAA1549 fusion mutant was subcloned into pMXs-IRES-Blasticidin (RTV-016, Cell Biolabs, San Diego, CA); fused on or other part: Q9HCM3 (UPF0606 protein KIAA1549)
T1 sequence (P15056 whole entry, change not shown, the tested form may be a part): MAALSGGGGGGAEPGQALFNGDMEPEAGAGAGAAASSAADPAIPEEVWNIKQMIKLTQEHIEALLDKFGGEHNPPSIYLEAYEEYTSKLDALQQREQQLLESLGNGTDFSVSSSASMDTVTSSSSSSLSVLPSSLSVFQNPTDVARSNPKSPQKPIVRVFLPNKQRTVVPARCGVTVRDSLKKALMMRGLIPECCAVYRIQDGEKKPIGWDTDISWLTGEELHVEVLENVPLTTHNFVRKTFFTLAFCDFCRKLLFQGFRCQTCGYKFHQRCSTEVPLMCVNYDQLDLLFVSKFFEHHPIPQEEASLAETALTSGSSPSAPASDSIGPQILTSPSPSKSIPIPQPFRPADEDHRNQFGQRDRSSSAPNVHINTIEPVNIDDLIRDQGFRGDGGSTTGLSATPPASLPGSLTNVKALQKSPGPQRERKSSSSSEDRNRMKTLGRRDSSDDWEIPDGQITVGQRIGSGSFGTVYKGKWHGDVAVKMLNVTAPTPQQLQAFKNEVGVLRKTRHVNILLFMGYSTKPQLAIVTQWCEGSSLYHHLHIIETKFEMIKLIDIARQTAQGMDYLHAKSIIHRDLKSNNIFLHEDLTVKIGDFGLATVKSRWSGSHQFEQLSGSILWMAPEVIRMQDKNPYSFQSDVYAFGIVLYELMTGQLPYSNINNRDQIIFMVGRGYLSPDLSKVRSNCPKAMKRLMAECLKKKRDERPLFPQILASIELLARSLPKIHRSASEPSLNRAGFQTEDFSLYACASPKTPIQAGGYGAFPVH
Kind of experiment: BaF3 BRAF-KIAA1549 fusion cell proliferation assay (CellTiterGlo). The class given is cell-based. The note with it: 96 hours incubation, potency code. The gist of the method: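 BaF3 cells stably transduced with a BRAF-KIAA1549 fusion, blasticidin-selected and growing without IL-3, were treated with compound for 96 h in RPMI/10% heat-inactivated FBS. Viability read as ATP content by CellTiterGlo luminescence, normalised to DMSO-treated cells. IC50 by Levenberg-Marquardt fit.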
(In general: ATP-based viability assays read luminescence as a measure of living cells.)
Compound `COc1nc2c(-c3nccnc3Nc3cc(NC(=O)c4cc(C(F)(F)F)ccn4)ccc3C)ncnc2[nH]1` [IA-122, N-(3-(3-(8-methoxy-9H-purin-6-yl)pyrazin-2-ylamino)-4-methylphenyl)-4-(trifluoromethyl)picolinamide] yielded a GI50 of 20 to 100 nM.
For the compound `Cc1ncc(C(=O)Nc2cccc(C3(C#N)CC3)c2)cc1Nc1ncccc1-c1ncnc2[nH]cnc12` [Compound I-58, 5-((3-(9H-purin-6-yl)pyridin-2-yl)amino)-N-(3-(1-cyanocyclopropyl)phenyl)-6-methylnicotinamide], the GI50 fell in the range of 20 to 100 nM.
In the case of `COc1cc(C(=O)Nc2ccc(C)c(Nc3ncccc3-c3ncnc4[nH]cnc34)c2)ccc1Cl` [Compound I-41, N-(3-((3-(9H-purin-6-yl)pyridin-2-yl)amino)-4-methylphenyl)-4-chloro-3-methoxybenzamide] it was under 20 nM; in that of `Cc1ccc(NC(=O)CN2CCCNCC2)cc1Nc1ncccc1-c1ncnc2[nH]cnc12` [IA-134, N-(3-((3-(9H-purin-6-yl)pyridin-2-yl)amino)-4-methylphenyl)-2-(1,4-diazepan-1-yl)acetamide], at least 500 nM.
The value for `Cc1ccc(NC(=O)c2ccc(Cl)c(C(C)(C)C#N)c2)cc1Nc1ncccc1-c1ncnc2[nH]cnc12` [Compound I-37, N-(3-((3-(9H-purin-6-yl)pyridin-2-yl)amino)-4-methylphenyl)-4-chloro-3-(2-cyanopropan-2-yl)benzamide] was 20 to 100 nM; that for `Cc1ccc(NC(=O)c2cc(C#N)c(Cl)cn2)cc1Nc1ncccc1-c1ncnc2[nH]cnc12` [Compound I-39, N-(3-((3-(9H-purin-6-yl)pyridin-2-yl)amino)-4-methylphenyl)-5-chloro-4-cyanopicolinamide] was at least 500 nM.
In the case of `Cc1ccc(NC(=O)c2cc(C(F)(F)F)ccn2)cc1Nc1ncccc1-c1ncnc2[nH]cnc12` [Compound I-2, N-(3-(3-(9H-Purin-6-yl)pyridin-2-ylamino)-4-methylphenyl)-4-(trifluoromethyl)picolinamide] it was under 20 nM.
In turn, `Cc1c(F)cc(NC(=O)c2cc(C(F)(F)F)ccn2)cc1Nc1ncccc1-c1ncnc2[nH]cnc12` [Compound I-29, N-(3-(3-(9H-purin-6-yl)pyridin-2-ylamino)-5-fluoro-4-methylphenyl)-4-(trifluoromethyl)picolinamide] had a GI50 of 20 to 100 nM.
In the case of `Cc1ccc(NC(=O)c2cccc(C(C)(C)C#N)c2)nc1Nc1ncccc1-c1ncnc2[nH]cnc12` [Compound I-57, N-(6-((3-(9H-purin-6-yl)pyridin-2-yl)amino)-5-methylpyridin-2-yl)-3-(2-cyanopropan-2-yl)benzamide] it was at least 500 nM; in that of `COc1c(C(F)(F)F)ccnc1C(=O)Nc1ccc(C)c(Nc2ncccc2-c2ncnc3[nH]cnc23)c1` [IA-101, N-(3-(3-(9H-purin-6-yl)pyridin-2-ylamino)-4-methylphenyl)-3-methoxy-4-(trifluoromethyl)picolinamide], under 20 nM; in that of `Cc1ccc(NC(=O)CC2CCCN(C)CC2)cc1Nc1ncccc1-c1ncnc2[nH]cnc12` (stereo not drawn) [IA-132, N-(3-(3-(9H-purin-6-yl)pyridin-2-ylamino)-4-methylphenyl)-2-(1-methylazepan-4-yl)acetamide], at least 500 nM.
As for `Cc1nc(-c2cccnc2Nc2cc(NC(=O)c3cc(C(F)(F)F)ccn3)ccc2C)c2nc[nH]c2n1` [IA-150, N-(4-methyl-3-((3-(2-methyl-9H-purin-6-yl)pyridin-2-yl)amino)phenyl)-4-(trifluoromethyl)picolinamide], the GI50 was at least 500 nM.
For `Cc1ccc(NC(=O)C23CC(Cl)(C2)C3)cc1Nc1ncccc1-c1ncnc2[nH]cnc12` [Compound I-28, N-(3-(3-(9H-purin-6-yl)pyridin-2-ylamino)-4-methylphenyl)-3-chlorobicyclo[1.1.1]pentane-1-carboxamide], the GI50 is at least 500 nM.
In the case of `Cc1nc2c(-c3cccnc3Nc3cc(NC(=O)c4ccnc(C(C)(C)C#N)c4)ccc3C)ncnc2[nH]1` [IA-127, 2-(2-cyanopropan-2-yl)-N-(4-methyl-3-((3-(8-methyl-9H-purin-6-yl)pyridin-2-yl)amino)phenyl)isonicotinamide] it was under 20 nM.
In the case of `CCc1ccc(NC(=O)c2cc(C(F)(F)F)ccn2)cc1Nc1ncccc1-c1ncnc2[nH]cnc12` [Compound I-68, N-(3-((3-(9H-purin-6-yl)pyridin-2-yl)amino)-4-ethylphenyl)-4-(trifluoromethyl)picolinamide], the GI50 lay in the range of 20 to 100 nM.
On to `Cc1c(F)cc(NC(=O)c2ccnc(C3(F)CC3)c2)cc1Nc1ncccc1-c1ncnc2[nH]cnc12` [Compound I-72, N-(3-((3-(9H-purin-6-yl)pyridin-2-yl)amino)-5-fluoro-4-methylphenyl)-2-(1-fluorocyclopropyl)isonicotinamide], for which the GI50 was under 20 nM.
The value for `Cc1nc2c(-c3cccnc3Nc3cc(NC(=O)c4cc(C(F)(F)F)c(OCCO)cn4)ccc3C)ncnc2[nH]1` [IA-129, 5-(2-hydroxyethoxy)-N-(4-methyl-3-((3-(8-methyl-9H-purin-6-yl)pyridin-2-yl)amino)phenyl)-4-(trifluoromethyl)picolinamide] was under 20 nM; that for `Cc1ccc(NC(=O)c2nccc(C(F)(F)F)c2F)cc1Nc1ncccc1-c1ncnc2[nH]cnc12` [IA-116, N-(3-((3-(9H-purin-6-yl)pyridin-2-yl)amino)-4-methylphenyl)-3-fluoro-4-(trifluoromethyl)picolinamide] was under 20 nM; that for `Cc1ccc(NC(=O)c2cc(C(F)(F)F)ccn2)cc1Nc1ncc(F)cc1-c1ncnc2[nH]cnc12` [IA-118, N-(3-((5-fluoro-3-(9H-purin-6-yl)pyridin-2-yl)amino)-4-methylphenyl)-4-(trifluoromethyl)picolinamide] was 20 to 100 nM.
The value for `Cc1ccc(NC(=O)c2cc(C(F)(F)F)cc(OCCO)n2)cc1Nc1ncccc1-c1ncnc2[nH]cnc12` [IA-98, N-(3-((3-(9H-purin-6-yl)pyridin-2-yl)amino)-4-methylphenyl)-6-(2-hydroxyethoxy)-4-(trifluoromethyl)picolinamide] was under 20 nM.
In the case of `Cc1ccc(NC(=O)c2ccnc(C3(C#N)CCC3)c2)cc1Nc1ncccc1-c1ncnc2[nH]cnc12` [Compound I-66, N-(3-((3-(9H-purin-6-yl)pyridin-2-yl)amino)-4-methylphenyl)-2-(1-cyanocyclobutyl)isonicotinamide] it was under 20 nM; in that of `Cc1cc(C(F)(F)F)cc(C(=O)Nc2ccc(C)c(Nc3ncccc3-c3ncnc4[nH]cnc34)c2)n1` [IA-93, N-(3-((3-(9H-purin-6-yl)pyridin-2-yl)amino)-4-methylphenyl)-6-methyl-4-(trifluoromethyl)picolinamide], 20 to 100 nM; in that of `Cc1ccc(C(=O)Nc2ccnc(C(F)(F)F)c2)cc1Nc1ncccc1-c1ncnc2[nH]cnc12` [Compound I-35, 3-((3-(9H-purin-6-yl)pyridin-2-yl)amino)-4-methyl-N-(2-(trifluoromethyl)pyridin-4-yl)benzamide], 20 to 100 nM.
Compound `Cc1ccc(NC(=O)CN2CCN3CCC2C3)cc1Nc1ncccc1-c1ncnc2[nH]cnc12` (stereo not drawn) [Compound I-89, N-(3-((3-(9H-purin-6-yl)pyridin-2-yl)amino)-4-methylphenyl)-2-(1,4-diazabicyclo[3.2.1]octan-4-yl)acetamide] displayed a GI50 of at least 500 nM.
For the compound `Cc1ccc(NC(=O)C[C@@H]2CCC[C@@H](C(F)(F)F)C2)cc1Nc1ncccc1-c1ncnc2[nH]cnc12` (single isomer, unassigned) [IA-140], the GI50 was under 20 nM.
In the case of `N#Cc1cc(C(=O)Nc2ccc(F)c(Nc3ncccc3-c3ncnc4[nH]cnc34)c2)ccc1Cl` [Compound I-50, N-(3-(3-(9H-purin-6-yl)pyridin-2-ylamino)-4-fluorophenyl)-4-chloro-3-cyanobenzamide] it was 20 to 100 nM; in that of `Cc1ccc(NC(=O)c2cc(C(F)(F)F)c(F)cn2)cc1Nc1ncccc1-c1ncnc2[nH]cnc12` [IA-115, N-(3-((3-(9H-purin-6-yl)pyridin-2-yl)amino)-4-methylphenyl)-5-fluoro-4-(trifluoromethyl)picolinamide], under 20 nM; in that of `Cc1ccc(NC(=O)Cn2cnc(C(F)(F)F)n2)cc1Nc1ncccc1-c1ncnc2[nH]cnc12` [Compound I-78, N-(3-((3-(9H-purin-6-yl)pyridin-2-yl)amino)-4-methylphenyl)-2-(3-(trifluoromethyl)-1H-1,2,4-triazol-1-yl)acetamide], 20 to 100 nM.
In the case of `Cc1ccc(NC(=O)c2ccc(Cl)c(C#N)c2)cc1Nc1ncccc1-c1ncnc2[nH]cnc12` [Compound I-22, N-(3-((3-(9H-purin-6-yl)pyridin-2-yl)amino)-4-methylphenyl)-4-chloro-3-cyanobenzamide] it was under 20 nM.
The value for `Cc1ccc(NC(=O)c2cc(C(F)(F)F)ccn2)cc1Nc1ncccc1-c1ncnc2[nH]c(OCCO)nc12` [IA-125, N-(3-(3-(8-(2-hydroxyethoxy)-9H-purin-6-yl)pyridin-2-ylamino)-4-methylphenyl)-4-(trifluoromethyl)picolinamide] was 20 to 100 nM; that for `Cc1ccc(NC(=O)c2ccc(Cl)c(C3(C#N)CC3)c2)cc1Nc1ncccc1-c1ncnc2[nH]cnc12` [Compound I-38, N-(3-((3-(9H-purin-6-yl)pyridin-2-yl)amino)-4-methylphenyl)-4-chloro-3-(1-cyanocyclopropyl)benzamide] was 20 to 100 nM.
Turning to `Cc1ccc(NC(=O)CC2CCCOCC2)cc1Nc1ncccc1-c1ncnc2[nH]cnc12` (stereo not drawn) [IA-102, N-(3-(3-(9H-purin-6-yl)pyridin-2-ylamino)-4-methylphenyl)-2-(oxepan-4-yl)acetamide], the GI50 is 100 to 500 nM.
In the case of `Cc1nc2c(-c3cccnc3Nc3cc(NC(=O)c4cc(C(F)(F)F)ccn4)ccc3C)ncnc2[nH]1` [IA-126, N-(4-methyl-3-((3-(8-methyl-9H-purin-6-yl)pyridin-2-yl)amino)phenyl)-4-(trifluoromethyl)picolinamide] it was under 20 nM.
